This passage reports melting point results from US7973069B2 (PTC Therapeutics, Inc., priority 2004, dated 2011).

By melting point is commonly meant the temperature of the solid-liquid transition. In turn, `CCCS(=O)(=O)Nc1ccc(-c2c(C#N)c3ccc(OC(F)F)cc3n2CC)cc1` [Compound 928, Propane-1-sulfonic acid [4-(3-cyano-6-difluoromethoxy-1-ethyl-1H-indoel-2-yl)-phenyl]-amide] showed a melting point of 206 to 208 °C. The same measure for `CC(C)OC(=O)Nc1ccc(-c2c(C#N)c3ccc(Oc4ncccn4)cc3n2C2CCC2)cc1Cl` [Compound 2339, {2-chloro-4-[3-cyano-1-cyclobutyl-6-(pyrimidin-2-yloxy)-1H-indol-2-yl]-phenyl}-carbamic acid isopropyl ester]: 165 to 165.5 °C; for `CC(C)NS(=O)(=O)Nc1ccc(-c2c(C#N)c3ccc(Oc4ncccn4)cc3n2C2CCC2)cc1` [Compound 2263]: 223 to 224 °C; for `C[C@@H](OC(=O)Nc1ccc(-c2c(C#N)c3ccc(-c4ccccn4)cc3n2C2CCC2)cc1)C1CC1` [Compound 2417, [4-(3-cyano-1-cyclobutyl-6-pyridin-2-yl-1H-indol-2-yl)-phenyl]-carbamic acid 1-cyclopropyl-ethyl ester]: 118 to 120 °C. The same measure for `CC(C)Nc1ccc(-c2c(C#N)c3ccc(Oc4ncccn4)cc3n2C2CC2)cc1` [Compound 2434, 1-cyclopropyl-2-(4-isopropylamino-phenyl)-6-(pyrimidin-2-yloxy)-1H-indole-3-carbonitrile]: 215 to 217 °C. In turn, `C[C@@H](OC(=O)Nc1ccc(-c2c(C#N)c3ccc(Oc4ncccn4)cc3n2C2CC2)cc1)C1CC1` [Compound 2217, (R)-{4-[3-cyano-1-cyclopropyl-6-(pyrimidin-2-yloxy)-1H-indol-2-yl]-phenyl}-carbamic acid 1-cyclopropylethyl ester] gave a melting point of 154 to 156 °C.

`C[C@@H](OC(=O)Nc1ccc(-c2c(C#N)c3ccc(-c4ncccn4)cc3n2C2CCC2)cc1)C1CC1` [Compound 2419, [4-(3-cyano-1-cyclobutyl-6-pyrimidin-2-yl-1H-indol-2-yl)-phenyl]-carbamic acid 1-cyclopropyl-ethyl ester]: the melting point fell in the range of 212 to 214 °C.

For the compound `C[C@@H](OC(=O)Nc1ccc(-c2c(C#N)c3ccc(Oc4ncccn4)cc3n2C2CCC2)cc1)C1CC1` [Compound 2210, (R)-{4-[3-cyano-1-cyclobutyl-6-(pyrimidin-2-yloxy)-1H-indol-2-yl]-phenyl}carbamic acid 1-cyclopropyl-ethyl ester], the melting point lay within 194 to 196 °C.
